Tests used:
[1] = tested on: HBV replication in HepAD38 cells; assay: Anti-HBV replication assay in HepAD38 cells (QPCR of extracellular HBV DNA); format: cell-based, HBV (genotype D, serotype ayw); conditions: Hepatitis B virus, 168 h, 7 days incubation, extracellular HBV DNA by QPCR, read-out: Anti-HBV EC50
Procedure, shortened: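 EC50 values reflect 50% reduction of extracellular HBV DNA, measured by QPCR after 7-day treatment of tetracycline-deprived HepAD38 cells with compound […].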

[2] = In vitro cytotoxicity assay (MTT cell viability) in HepG2 cells; format: cell-based, human; conditions: human
Procedure, shortened: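 Viability measured by MTT conversion, absorbance at 492 nm, as percent of vehicle-treated wells. Compounds spanned 30 μM to 1.0 nM in half-log steps over a 7-day exposure of parental HepG2 cells; CC50 derived by 4-parameter curve fit.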

SMILES | EC50 [1] [µM] | CC50 at 7 days [2] [µM]
COc1c(C(=O)Nc2ccc(F)c(F)c2)c(C)n(C)c1C(=O)C(=O)NC1(C)CC(F)(F)C1 [Example 379, 5-(2-((3,3-difluoro-1-methylcyclobutyl)amino)-2-oxoacetyl)-N-(3,4-difluorophenyl)-4-methoxy-1,2-dimethyl-1H-pyrrole-3-carboxamide] | 0.05 to 0.499 | > 30
Cc1cc(NC(=O)c2c(C)c(C(=O)C(=O)NC3(CO)CCCC3)n(C)c2C)ccc1F [Example 359, N-(4-fluoro-3-methylphenyl)-5-(2-((1-(hydroxymethyl)cyclopentyl)amino)-2-oxoacetyl)-1,2,4-trimethyl-1H-pyrrole-3-carboxamide] | < 0.05 | > 30
COCC(C)(C)NC(=O)C(=O)c1c(C)c(C(=O)Nc2ccc(F)nc2)c(C)n1C [Example 168, N-(6-fluoropyridin-3-yl)-5-(2-((1-methoxy-2-methylpropan-2-yl)amino)-2-oxoacetyl)-1,2,4-trimethyl-1H-pyrrole-3-carboxamide] | 0.05 to 0.499 | > 30
Cc1cc(NC(=O)c2cc(C(=O)C(=O)NC(C)C)n3c2CCCC3)ccc1F [Example 412, N-(4-fluoro-3-methylphenyl)-3-(2-(isopropylamino)-2-oxoacetyl)-5,6,7,8-tetrahydroindolizine-1-carboxamide] | 0.05 to 0.499 | 5 to 30
CC(=O)N1CCC[C@H](NC(=O)C(=O)c2c(C)c(C(=O)Nc3ccc(F)c(C)c3)c(C)n2C)C1 [Example 641, (S)-5-(2-((1-acetylpiperidin-3-yl)amino)-2-oxoacetyl)-N-(4-fluoro-3-methylphenyl)-1,2,4-trimethyl-1H-pyrrole-3-carboxamide] | < 0.05 | > 30
Cc1csc(NC(=O)C(=O)c2c(C)c(C(=O)Nc3ccc(F)c(F)c3)c(C)n2C)n1 [Example 315, N-(3,4-difluorophenyl)-1,2,4-trimethyl-5-(2-((4-methylthiazol-2-yl)amino)-2-oxoacetyl)-1H-pyrrole-3-carboxamide] | < 0.05 | > 30
Cc1cc(NC(=O)c2c(C)c(C(=O)C(=O)NC(C)(C)CN3CCOCC3)n(C)c2C)ccc1F [Example 291, N-(4-fluoro-3-methylphenyl)-1,2,4-trimethyl-5-(2-((2-methyl-1-morpholinopropan-2-yl)amino)-2-oxoacetyl)-1H-pyrrole-3-carboxamide] | < 0.05 | > 30
Cc1cc(NC(=O)c2cc(C(=O)C(=O)NC[C@H](O)CO)n3c2CCCC3)ccc1F [Example 416, (S)-3-(2-((2,3-dihydroxypropyl)amino)-2-oxoacetyl)-N-(4-fluoro-3-methylphenyl)-5,6,7,8-tetrahydroindolizine-1-carboxamide] | > 1 | > 30
Cc1cc(NC(=O)c2c(C)c(C(=O)C(=O)N[C@H]3CC[C@H](CO)CC3)n(C)c2C)ccc1F [Example 675, N-(4-fluoro-3-methylphenyl)-5-(2-(((1r,4r)-4-(hydroxymethyl)cyclohexyl)amino)-2-oxoacetyl)-1,2,4-trimethyl-1H-pyrrole-3-carboxamide] | < 0.05 | > 30
CC(=O)N1CC[C@H](NC(=O)C(=O)c2c(C)c(C(=O)Nc3ccc(F)c(C)c3)c(C)n2C)C1 [Example 666, (S)-5-(2-((1-acetylpyrrolidin-3-yl)amino)-2-oxoacetyl)-N-(4-fluoro-3-methylphenyl)-1,2,4-trimethyl-1H-pyrrole-3-carboxamide] | < 0.05 | > 30
Cc1cc(NC(=O)c2c(C)c(C(=O)C(=O)N[C@]3(C)CC[C@H](O)CC3)n(C)c2C)ccc1F [Example 228, N-(4-fluoro-3-methylphenyl)-5-(2-(((1s,4s)-4-hydroxy-1-methylcyclohexyl)amino)-2-oxoacetyl)-1,2,4-trimethyl-1H-pyrrole-3-carboxamide] | < 0.05 | > 30
Cc1cc(NC(=O)c2c(C)c(C(=O)C(=O)N[C@@H]3CCc4nc(N)sc4C3)n(C)c2C)ccc1F [Example 76, (R)-5-(2-((2-amino-4,5,6,7-tetrahydrobenzo[d]thiazol-6-yl)amino)-2-oxoacetyl)-N-(4-fluoro-3-methylphenyl)-1,2,4-trimethyl-1H-pyrrole-3-carboxamide] | < 0.05 | 5 to 30
Cc1c(C(=O)Nc2cc(F)c(F)c(F)c2)c(C)n(C)c1C(=O)C(=O)Nc1ccc(F)nc1 [Example 321, 5-(2-((6-fluoropyridin-3-yl)amino)-2-oxoacetyl)-1,2,4-trimethyl-N-(3,4,5-trifluorophenyl)-1H-pyrrole-3-carboxamide] | < 0.05 | 5 to 30
CO[C@H]1CC[C@@H](NC(=O)C(=O)c2c(C)c(C(=O)Nc3ccc(F)c(C)c3)c(C)n2C)CC1 [Example 268, N-(4-fluoro-3-methylphenyl)-5-(2-(((1s,4s)-4-methoxycyclohexyl)amino)-2-oxoacetyl)-1,2,4-trimethyl-1H-pyrrole-3-carboxamide] | < 0.05 | 5 to 30
Cc1c(C(=O)Nc2ccc(F)c(F)c2)c(C)n(C)c1C(=O)C(=O)Nc1ccc(F)nc1 [Example 297, N-(3,4-difluorophenyl)-5-(2-((6-fluoropyridin-3-yl)amino)-2-oxoacetyl)-1,2,4-trimethyl-1H-pyrrole-3-carboxamide] | < 0.05 | 5 to 30
Cc1cc(NC(=O)c2c(C)c(C(=O)C(=O)N[C@H](C(N)=O)[C@H](C)O)n(C)c2C)ccc1F [Example 57, 5-(2-(((2S,3S)-1-amino-3-hydroxy-1-oxobutan-2-yl)amino)-2-oxoacetyl)-N-(4-fluoro-3-methylphenyl)-1,2,4-trimethyl-1H-pyrrole-3-carboxamide] | 0.05 to 0.499 | > 30
Cc1c(C(=O)Nc2ccc(F)cc2)c(C)n(C)c1C(=O)C(=O)N[C@H]1CC[C@@H](O)CC1 [Example 724] | < 0.05 | > 30
CC(C)(C)NC(=O)C(=O)c1cc(C(=O)Nc2ccc(F)c(C(F)F)c2)c2n1CCCC2 [Example 400, 3-(2-(tert-butylamino)-2-oxoacetyl)-N-(3-(difluoromethyl)-4-fluorophenyl)-5,6,7,8-tetrahydroindolizine-1-carboxamide] | 0.05 to 0.499 | > 30
Cc1cc(NC(=O)c2c(C)c(C(=O)C(=O)NC3(CO)CC(F)(F)C3)n(CCF)c2C)ccc1F [Example 179, 5-(2-((3,3-difluoro-1-(hydroxymethyl)cyclobutyl)amino)-2-oxoacetyl)-N-(4-fluoro-33-methylphenyl)-1-(2-fluoroethyl)-2,4-dimethyl-1H-pyrrole-3-carboxamide] | < 0.05 | 5 to 30
Cc1cnc(C(C)(C)NC(=O)C(=O)c2c(C)c(C(=O)Nc3ccc(F)c(C)c3)c(C)n2C)s1 [Example 84, N-(4-fluoro-3-methylphenyl)-1,2,4-trimethyl-5-(2-((2-(5-methylthiazol-2-yl)propan-2-yl)amino)-2-oxoacetyl)-1H-pyrrole-3-carboxamide] | < 0.05 | > 30
O=C(NC1(CO)CCC1)C(=O)c1c(Cl)c(C(=O)Nc2ccc(F)c(F)c2)c2n1CCC2 [Example 558, 6-chloro-N-(3,4-difluorophenyl)-5-(2-((1-(hydroxymethyl)cyclobutyl)amino)-2-oxoacetyl)-2,3-dihydro-1H-pyrrolizine-7-carboxamide] | < 0.05 | > 30
Cc1cc(NC(=O)c2c(C)c(C(=O)C(=O)N[C@H]3CC[C@](O)(C(F)(F)F)CC3)n(C)c2C)ccc1F [Example 221, N-(4-fluoro-3-methylphenyl)-5-(2-(((1s,4s)-4-hydroxy-4-(trifluoromethyl)cyclohexyl)amino)-2-oxoacetyl)-1,2,4-trimethyl-1H-pyrrole-3-carboxamide] | < 0.05 | 5 to 30
Cc1cc(NC(=O)c2c(C)c(C(=O)C(=O)NC(C)(C)C)n3c2CCCC3)ccc1F [Example 434, 3-(2-(tert-butylamino)-2-oxoacetyl)-N-(4-fluoro-3-methylphenyl)-2-methyl-5,6,7,8-tetrahydroindolizine-1-carboxamide] | < 0.05 | > 30
Cc1c(C(=O)Nc2cc(F)c(F)c(F)c2)c(Cl)c(C(=O)C(=O)NC(C)(C)CO)n1C [Example 373, 4-chloro-5-(2-((1-hydroxy-2-methylpropan-2-yl)amino)-2-oxoacetyl)-1,2-dimethyl-N-(3,4,5-trifluorophenyl)-1H-pyrrole-3-carboxamide] | < 0.05 | 0.5 to 4.99
Cc1cc(NC(=O)c2c(C)c(C(=O)C(=O)N[C@@H](CO)C(C)(C)C)n(C)c2C)ccc1F [Example 78, (R)—N-(4-fluoro-3-methylphenyl)-5-(2-((1-hydroxy-3,3-dimethylbutan-2-yl)amino)-2-oxoacetyl)-1,2,4-trimethyl-1H-pyrrole-3-carboxamide] | < 0.05 | > 30
O=C(NC1(CO)CC(F)(F)C1)C(=O)c1c(Cl)c(C(=O)Nc2ccc(F)c(Cl)c2)c2n1CCCC2 [Example 515, 2-chloro-N-(3-chloro-4-fluorophenyl)-3-(2-((3,3-difluoro-1-(hydroxymethyl)cyclobutyl)amino)-2-oxoacetyl)-5,6,7,8-tetrahydroindolizine-1-carboxamide] | < 0.05 | 5 to 30
CC(C)(C)NC(=O)C(=O)c1cc(C(=O)Nc2cc(F)cc(Cl)c2)c2n1CCCC2 [Example 395, 3-(2-(tert-butylamino)-2-oxoacetyl)-N-(3-chloro-5-fluorophenyl)-5,6,7,8-tetrahydroindolizine-1-carboxamide] | > 1 | 0.5 to 4.99

Source: patent US20190375708A1 (VenatoRx Pharmaceuticals, Inc., priority 2018, published 2019)
